This is an account of results in patent US20090105305A1, “Therapeutic Agents - 550” (AstraZeneca AB, priority 2006, published 2009).

Molecules are shown by their SMILES.

The target of this test is T1, human Fatty Acid Synthase (Homo sapiens, UniProt P49327).
T1 construct: made in house
As to the kind of experiment: Human FAS enzyme assay (decrease in NADPH fluorescence). To be noted: for inhibition at 100 µM: % inhibition at a concentration of 100 micromolar; for IC50s in the range of about 0.001 μM to about 30 μM: compounds excluded from the claims by proviso. The format is biochemical. In outline:
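In-house human FAS (0.4 μg) was preincubated 15 min at RT with compound and NADPH (added at 166.6 μM) in 0.1 M Tris pH 7.5, 1 mM glutathione, 0.05% BSA. Malonyl-/acetyl-CoA (500/150 μM in substrate mix) was then added for 60 min. Readout was NADPH fluorescence loss (ex 340/em 460) over a time-zero read, with IC50 from a sigmoid fit.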

T1 sequence (P49327 whole entry): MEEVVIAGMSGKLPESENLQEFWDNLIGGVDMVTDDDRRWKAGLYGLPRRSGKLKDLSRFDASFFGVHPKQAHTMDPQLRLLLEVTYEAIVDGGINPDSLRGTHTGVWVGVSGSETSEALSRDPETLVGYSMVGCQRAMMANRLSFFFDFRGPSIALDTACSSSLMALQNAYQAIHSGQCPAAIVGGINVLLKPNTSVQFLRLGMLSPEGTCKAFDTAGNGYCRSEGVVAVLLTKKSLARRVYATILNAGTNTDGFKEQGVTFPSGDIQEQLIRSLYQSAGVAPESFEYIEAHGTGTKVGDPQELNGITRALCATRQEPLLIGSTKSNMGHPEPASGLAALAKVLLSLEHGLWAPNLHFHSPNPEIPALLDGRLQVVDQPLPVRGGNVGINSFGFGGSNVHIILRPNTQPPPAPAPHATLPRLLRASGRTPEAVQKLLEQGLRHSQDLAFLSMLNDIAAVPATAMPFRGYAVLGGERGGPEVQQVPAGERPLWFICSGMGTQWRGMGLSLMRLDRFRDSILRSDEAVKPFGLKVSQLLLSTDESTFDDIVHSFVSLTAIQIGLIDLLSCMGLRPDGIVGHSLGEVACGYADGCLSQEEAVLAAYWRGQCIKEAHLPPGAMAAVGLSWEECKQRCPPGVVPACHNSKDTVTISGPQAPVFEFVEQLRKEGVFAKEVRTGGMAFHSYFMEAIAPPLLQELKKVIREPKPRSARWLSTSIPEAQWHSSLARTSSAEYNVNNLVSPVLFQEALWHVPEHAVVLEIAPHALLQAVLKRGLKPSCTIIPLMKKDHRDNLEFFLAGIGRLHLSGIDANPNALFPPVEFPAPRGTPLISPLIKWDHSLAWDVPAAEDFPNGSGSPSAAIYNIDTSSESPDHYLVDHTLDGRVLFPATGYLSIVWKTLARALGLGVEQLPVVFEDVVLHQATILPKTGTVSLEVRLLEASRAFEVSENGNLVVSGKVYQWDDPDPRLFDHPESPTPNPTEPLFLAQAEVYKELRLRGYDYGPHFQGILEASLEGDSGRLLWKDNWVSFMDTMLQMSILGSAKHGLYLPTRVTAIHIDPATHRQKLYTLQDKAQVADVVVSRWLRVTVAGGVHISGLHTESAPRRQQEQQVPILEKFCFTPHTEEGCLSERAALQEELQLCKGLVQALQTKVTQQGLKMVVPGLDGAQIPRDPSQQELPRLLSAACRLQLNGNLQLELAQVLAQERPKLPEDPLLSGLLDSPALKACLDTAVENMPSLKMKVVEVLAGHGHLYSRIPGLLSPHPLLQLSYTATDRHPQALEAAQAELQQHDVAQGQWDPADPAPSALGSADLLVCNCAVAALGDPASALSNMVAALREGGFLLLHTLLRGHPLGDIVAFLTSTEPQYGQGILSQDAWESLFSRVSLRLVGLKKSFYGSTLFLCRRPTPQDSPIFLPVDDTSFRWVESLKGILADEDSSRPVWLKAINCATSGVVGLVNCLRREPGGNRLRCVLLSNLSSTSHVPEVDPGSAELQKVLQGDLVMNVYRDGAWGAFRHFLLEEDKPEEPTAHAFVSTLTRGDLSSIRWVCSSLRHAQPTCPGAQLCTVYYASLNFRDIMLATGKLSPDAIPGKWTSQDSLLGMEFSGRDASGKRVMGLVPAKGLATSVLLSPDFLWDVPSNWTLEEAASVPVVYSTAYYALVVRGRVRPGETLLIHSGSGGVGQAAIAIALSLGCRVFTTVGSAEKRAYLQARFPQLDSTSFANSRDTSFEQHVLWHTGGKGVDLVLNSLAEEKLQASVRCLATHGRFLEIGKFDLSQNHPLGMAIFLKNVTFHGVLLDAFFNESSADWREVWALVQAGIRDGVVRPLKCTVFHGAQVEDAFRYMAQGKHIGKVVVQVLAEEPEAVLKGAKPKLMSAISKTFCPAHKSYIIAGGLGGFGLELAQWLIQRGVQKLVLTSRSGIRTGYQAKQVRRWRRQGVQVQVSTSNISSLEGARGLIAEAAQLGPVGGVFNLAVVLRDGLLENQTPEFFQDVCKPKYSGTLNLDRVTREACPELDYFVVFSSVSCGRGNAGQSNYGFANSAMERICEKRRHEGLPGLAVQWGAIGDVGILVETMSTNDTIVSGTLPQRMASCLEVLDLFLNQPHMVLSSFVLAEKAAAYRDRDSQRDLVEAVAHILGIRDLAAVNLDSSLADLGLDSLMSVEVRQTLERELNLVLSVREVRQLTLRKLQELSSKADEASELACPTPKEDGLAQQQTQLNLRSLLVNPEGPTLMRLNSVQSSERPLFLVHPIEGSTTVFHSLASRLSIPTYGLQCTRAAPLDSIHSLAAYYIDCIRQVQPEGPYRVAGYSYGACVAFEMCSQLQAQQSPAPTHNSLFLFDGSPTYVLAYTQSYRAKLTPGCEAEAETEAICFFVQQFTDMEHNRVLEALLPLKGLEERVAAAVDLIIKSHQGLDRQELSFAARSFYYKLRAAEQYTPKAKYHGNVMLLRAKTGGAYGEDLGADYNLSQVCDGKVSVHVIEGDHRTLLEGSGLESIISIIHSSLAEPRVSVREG

As usually defined, the inhibition is the change of the read-out against control, counted positive when it falls. Take `Cc1ccc(C(=O)N2CCC(c3ccc(C(=O)NCCN(C)C)cc3)CC2)cc1NS(C)(=O)=O` [Example 222, N-(2-dimethylaminoethyl)-4-[1-(3-methanesulfonamido-4-methylbenzoyl)piperidin-4-yl]benzamide]: the inhibition at 100 µM is 64%.
Still for that read-out and setting: with `Cc1nc(C)c(S(=O)(=O)Nc2cc(C(=O)N3CCC(c4ccc(C#N)cc4)CC3)ccc2C)s1` [Example 106, N-[5-[4-(4-cyanophenyl)piperidine-1-carbonyl]-2-methyl-phenyl]-2,4-dimethyl-1,3-thiazole-5-sulfonamide] the figure was 95%; with `Cc1ccc(C(=O)N2CCC(c3ccc(CN4CCOCC4)cc3)CC2)cc1NS(C)(=O)=O` [Example 243, N-[2-methyl-5-[4-[4-(morpholin-4-ylmethyl)phenyl]piperidine-1-carbonyl]phenyl]methanesulfonamide], 69.9%.
Take `Cc1ccc(C(=O)N2CCC(c3ccc(C(=O)N(C)C)cc3)CC2)cc1NS(C)(=O)=O` [4-[1-(3-methanesulfonamido-4-methylbenzoyl)piperidin-4-yl]-N,N-dimethylbenzamide]: the “IC50s in the range of about 0.001 μM to about 30 μM” value (“IC50s in the range” for short) is on record as “do not have IC50s in the range of about 0.001 μM to about 30 μM”.
Consider `Cc1ccc(C(=O)N2CCC(c3ccc(C#N)cc3)CC2)cc1NS(=O)(=O)c1c(C)nn(C)c1Cl` [Example 100, 5-chloro-N-[5-[4-(4-cyanophenyl)piperidine-1-carbonyl]-2-methyl-phenyl]-1,3-dimethyl-pyrazole-4-sulfonamide], for which the inhibition at 100 µM came to 90%.
Same read-out and setting: with `Cc1ccc(C(=O)N2CCC(c3ccc(C#N)cc3)CC2)cc1NS(=O)(=O)c1ccc(=O)[nH]c1` [Example 102, N-[5-[4-(4-cyanophenyl)piperidine-1-carbonyl]-2-methyl-phenyl]-6-oxo-1H-pyridine-3-sulfonamide] the figure was 81%.
For the compound `COc1ccc(CNC(=O)c2ccccc2S(=O)(=O)Nc2cc(C(=O)N3CCC(c4ccc(C#N)cc4)CC3)ccc2C)c(OC)c1` [2-[[5-[4-(4-cyanophenyl)piperidine-1-carbonyl]-2-methylphenyl]sulfamoyl]-N-[(2,4-dimethoxyphenyl)methyl]benzamide], the “IC50s in the range” value is “do not have IC50s in the range of about 0.001 μM to about 30 μM”.
Consider `Cc1ccc(NS(=O)(=O)CCCCl)cc1C(=O)N1CCC(c2ccc(C#N)cc2)CC1` [Example 34, 3-chloro-N-[3-[4-(4-cyanophenyl)piperidine-1-carbonyl]-4-methyl-phenyl]propane-1-sulfonamide], for which the inhibition at 100 µM worked out at 89%.
On the same count and under the same terms, in the case of `COc1ccccc1S(=O)(=O)Nc1ccc(C)c(C(=O)N2CCC(c3ccc(C#N)cc3)CC2)c1` [Example 50, N-[3-[4-(4-cyanophenyl)piperidine-1-carbonyl]-4-methyl-phenyl]-2-methoxy-benzenesulfonamide] it was 87%.
Still for that read-out and setting: in the case of `Cc1ccc(C(=O)N2CCC(c3ccc(CNC(=O)CC(C)C)cc3)CC2)cc1NS(C)(=O)=O` [Example 236, N-[[4-[1-(3-methanesulfonamido-4-methylbenzoyl)piperidin-4-yl]phenyl]methyl]-3-methylbutanamide] it was 59.8%.
Take `Cc1ccc(C(=O)N2CCC(c3ccccc3)CC2)cc1NS(=O)(=O)c1ccc(Cl)cc1` [4-chloro-N-[2-methyl-5-(4-phenylpiperidine-1-carbonyl)phenyl]benzenesulfonamide]: the “IC50s in the range” value was “do not have IC50s in the range of about 0.001 μM to about 30 μM”.
For the compound `Cc1ccc(NS(=O)(=O)C(C)C)cc1C(=O)N1CCC(c2ccc(C#N)cc2)CC1` [Example 32, N-[3-[4-(4-cyanophenyl)piperidine-1-carbonyl]-4-methyl-phenyl]propane-2-sulfonamide], the inhibition at 100 µM came out at 85%.
For `Cc1ccc(C(=O)N2CCC(c3ccc(C#N)cc3)CC2)cc1NS(=O)(=O)C1CCN(C(=O)OCc2ccccc2)C1` (centres unmarked) [Benzyl 3-[[5-[4-(4-cyanophenyl)piperidine-1-carbonyl]-2-methylphenyl]sulfamoyl]pyrrolidine-1-carboxylate], the “IC50s in the range” value was “do not have IC50s in the range of about 0.001 μM to about 30 μM”.
Regarding `Cc1ccc(C(=O)N2CCC(c3ccc(C#N)cc3)CC2)cc1NS(=O)(=O)Cc1ccc(S(C)(=O)=O)cc1` [Example 62, N-[5-[4-(4-cyanophenyl)piperidine-1-carbonyl]-2-methyl-phenyl]-1-(4-methylsulfonylphenyl)methanesulfonamide], the inhibition at 100 µM stood at 82%.
Same read-out and setting: with `CCCCOc1ccc(S(=O)(=O)Nc2cc(C(=O)N3CCC(c4ccc(C#N)cc4)CC3)ccc2C)cc1` [Example 24, 4-butoxy-N-[5-[4-(4-cyanophenyl)piperidine-1-carbonyl]-2-methyl-phenyl]benzenesulfonamide] the figure was 83%; with `Cc1ccc(NS(=O)(=O)Cc2cccc(F)c2)cc1C(=O)N1CCC(c2ccc(C#N)cc2)CC1` [Example 52, N-[3-[4-(4-cyanophenyl)piperidine-1-carbonyl]-4-methyl-phenyl]-1-(3-fluorophenyl)methanesulfonamide], 91%; with `Cc1ccc(C(=O)N2CCC(c3ccc(F)cc3)CC2)cc1NS(C)(=O)=O` [Example 213, N-[5-[4-(4-fluorophenyl)piperidine-1-carbonyl]-2-methylphenyl]methanesulfonamide], 71%.
On the same count and under the same terms, with `Cc1ccc(C(=O)N2CCC(c3ccc(C#N)cc3)CC2)cc1NS(=O)(=O)c1ccc(Cl)s1` [Example 19, 5-chloro-N-[5-[4-(4-cyanophenyl)piperidine-1-carbonyl]-2-methyl-phenyl]thiophene-2-sulfonamide] the figure was 96%; with `CSc1ccc(C(=O)N2CCC(c3ccc(C#N)cc3)CC2)cc1NS(=O)(=O)Cc1ccccc1` [Example 160, N-[5-[4-(4-cyanophenyl)piperidine-1-carbonyl]-2-methylsulfanylphenyl]-1-phenylmethanesulfonamide], 89%; with `Cc1ccc(C(=O)N2CCC(c3ccc(C#N)cc3)CC2)cc1NS(=O)(=O)C1CCNCC1` [Example 115, N-[5-[4-(4-cyanophenyl)piperidine-1-carbonyl]-2-methyl-phenyl]piperidine-4-sulfonamide], 97%.
Still for that read-out and setting: in the case of `Cc1ccc(NS(=O)(=O)Cc2ccccc2F)cc1C(=O)N1CCC(c2ccc(C#N)cc2)CC1` [Example 51, N-[3-[4-(4-cyanophenyl)piperidine-1-carbonyl]-4-methyl-phenyl]-1-(2-fluorophenyl)methanesulfonamide] it was 94%.
Turning to `Cc1ccc(C(=O)N2CCC(c3ccc(C#N)cc3)CC2)cc1NS(=O)(=O)c1cnn(C)c1` [Example 145, N-[5-[4-(4-cyanophenyl)piperidine-1-carbonyl]-2-methyl-phenyl]-1-methyl-pyrazole-4-sulfonamide], the inhibition at 100 µM was 97%.
For the compound `Cc1ccc(C(=O)N2CCC(c3ccc(C(F)(F)F)cc3)CC2)cc1NS(=O)(=O)C1CCS(=O)(=O)C1` (centres unmarked) [Example 177, N-[2-methyl-5-[4-[4-(trifluoromethyl)phenyl]piperidine-1-carbonyl]phenyl]-1,1-dioxothiolane-3-sulfonamide], the inhibition at 100 µM was 91%.
Still for that read-out and setting: with `Cc1ccc(C(=O)N2CCC(c3ccc(C#N)cc3)CC2)cc1NS(=O)(=O)c1c(Cl)nc2sccn12` [Example 101, 7-chloro-N-[5-[4-(4-cyanophenyl)piperidine-1-carbonyl]-2-methyl-phenyl]-4-thia-1,6-diazabicyclo[3.3.0]octa-2,5,7-triene-8-sulfonamide] the figure was 98%; with `Cc1ccc(C(=O)N2CCC(c3ccc(Oc4ncccn4)cc3)CC2)cc1NS(C)(=O)=O` [Example 190, N-[2-methyl-5-[4-(4-pyrimidin-2-yloxyphenyl)piperidine-1-carbonyl]phenyl]methanesulfonamide], 88%; with `CC(=O)NCCS(=O)(=O)Nc1cc(C(=O)N2CCC(c3ccc(C#N)cc3)CC2)ccc1C` [Example 78, N-[2-[[5-[4-(4-cyanophenyl)piperidine-1-carbonyl]-2-methyl-phenyl]sulfamoyl]ethyl]acetamide], 95%.
Still for that read-out and setting: with `Cc1cc(C)c(C(=O)N2CCC(c3ccc(C#N)cc3)CC2)cc1NS(C)(=O)=O` [Example 28, N-[5-[4-(4-cyanophenyl)piperidine-1-carbonyl]-2,4-dimethyl-phenyl]methanesulfonamide] the figure was 93%; with `Cc1ccc(C(=O)N2CCC(c3ccc(C#N)cc3)CC2)cc1NS(C)(=O)=O` [Example 1, N-(5-(4-(4-cyanophenyl)piperidine-1-carbonyl)-2-methylphenyl)methanesulfonamide], 86%.
The same measure, in the same setting: with `CCCC(=O)NCc1ccc(C2CCN(C(=O)c3ccc(C)c(NS(C)(=O)=O)c3)CC2)cc1` [Example 235, N-[[4-[1-(3-methanesulfonamido-4-methylbenzoyl)piperidin-4-yl]phenyl]methyl]butanamide] the figure was 72.8%.
Consider `Cc1ccc(C(=O)N2CCC(c3ccc(C#N)cc3)CC2)cc1NS(=O)(=O)c1ccccc1C(=O)O` [2-[[5-[4-(4-cyanophenyl)piperidine-1-carbonyl]-2-methylphenyl]sulfamoyl]benzoic acid], for which the “IC50s in the range” value is “do not have IC50s in the range of about 0.001 μM to about 30 μM”.
Turning to `Cc1ccc(C(=O)N2CCC(c3ccc(C(=O)c4nccs4)cc3)CC2)cc1NS(C)(=O)=O` [Example 188, N-[2-methyl-5-[4-[4-(1,3-thiazole-2-carbonyl)phenyl]piperidine-1-carbonyl]phenyl]methanesulfonamide], the inhibition at 100 µM came out at 110%.
For `Cc1ccc(C(=O)N2CCC(c3ccc(C(=O)N4CCCN(C)CC4)cc3)CC2)cc1NS(C)(=O)=O` [N-[2-methyl-5-[4-[4-(4-methyl1,4-diazepane-1-carbonyl)phenyl]piperidine-1-carbonyl]phenyl]methanesulfonamide], the “IC50s in the range” value is “do not have IC50s in the range of about 0.001 μM to about 30 μM”.
